{"source": "patent US20070098732A1", "about": "“Immunologic compounds for prevention, protection, prophylaxis or treatment of immunological disorders, infections and cancer” (Universite De Montreal, priority 2003, published 2007)", "test_system": "EL-4 lymphoma cells", "experiment": "PDT of EL-4 lymphoma cells with TH9402 and light", "assay_type": "cell-based", "protocol": "The strain of mice B6SJL was used for the evaluation of PDT to induce immuno-protection. In generation of tumor cell lysates, EL-4 cells (American Type Culture Collection, ATCC Accession # TIB-39) were seeded in flasks at 10^6 cells/ml and exposed to 10 μM TH9402 in serum free DMEM without phenol red medium for 40 minutes, followed by exposure to drug-free medium for 90 minutes, then illuminated with a dose of 10J/cm^2. Treated cells were incubated overnight. After incubation, cells and supernatants were collected and spun down. The resulting supernatant was collected, concentrated by vacuum speed using a molecular sieve (centriplus 3000 molecular weight cut-off), and stored frozen at −70° C. until use.", "data": [{"smiles": "Br.COC(=O)c1ccccc1-c1c2ccc(=N)c(Br)c-2oc2c(Br)c(N)ccc12", "note": "[TH9402, 2′-(6-amino-4,5-dibromo-3-imino-3H-xanthen-9-yl)-benzoic acid methyl ester hydrobromide]", "values": [{"measurement": "cell death of EL-4 lymphoma cells undergoing PDT", "result": "rapidly proceed to programmed cell death, apoptosis and/or necrosis"}]}]}
